Test results published in US20100216891A1, “AROMATIC ANTIHYPERTENSIVE AGENT, AND METHOD FOR LOWERING BLOOD PRESSURE IN MAMMALS” (PANASONIC CORPORATION, priority 2008, published 2010).

Tested on: male Wister strain rats
Assay: Test Example 1: change in blood pressure of rats on presentation of aromatic compositions to the nostril
Type: in vivo
Settings: rat, aroma presented to vicinity of nostril for 10 minutes, 30 minutes after the presentation, FIG. 1
Method: Focusing attention on aromatic components contained in a Melissa essential oil, one of plant essential oils, various aromatic compositions were presented to male Wister strain rats, and evaluation of change in caudal arterial pressure before and after the presentation was conducted. The test was carried out under conditions that avoid stress which may be placed on the rat as less as possible, and thus can be kept calm in an environment of the measurement of the blood pressure.
Male Wister strain rats of 7-week old were purchased, and after one week acclimatization period, the blood pressure was measured on 8-week old. All experimental animals were kept under a 12:12 light-dark cycle (light period: from 8 AM to 8 PM), with allowing for free access to chow and drinking water.
Training for adaptation of the 7-week old rat to a holder for the blood pressure measurement was carried out for one week. […]
For three days after completing the training, change in the blood pressure was measured upon presentation of the aromatic composition to the rats. […] The blood pressures before and after 30 minutes from presenting the aromatic compositions were measured, and the changes of the blood pressures were compared. […]

Compound	change in diastolic blood pressure (caudal arterial pressure) after presentation compared with the values before the presentation
CC(C)=CCCC(C)=CC=O [citral]	lowering of the blood pressure
C=CC(C)(O)CCC=C(C)C (centres unmarked) [linalool]	lowering of the blood pressure
